Data reported in patent US6458847B1, “Method for screening for drugs useful in inhibition of polymerization of aβ and tau peptides” (University of Alabama at Birmingham Research Foundation, priority 1995, dated 2002).

Experiments:
juvenile rat MTτ = biological target: T1, juvenile rat MTτ (Rattus norvegicus, UniProt P19332, DEL587-617); assay: Fatty acid dependence of tau assembly, polymer length per field by electron microscopy; format: biochemical; details: for Polymer Mass (μm/field) / % maximum: 50 μM free fatty acid, 72 hours; for Polymer Mass (μm/field): juvenile rat MTτ, average ± S.E.M. (n = 12); for % maximum: relative to the maximal assembly achieved with arachidonic acid; for stimulation of tau assembly, qualitative examination of grids: 50 μM, below measured CMC values
T1 construct: killed by decapitation at postnatal day 11 (juveniles); from tissue; host or cells: brain microtubules of P11 Sprague-Dawley rats
T1 sequence (P19332 with tags, fused parts or gaps isoform P19332-6 DEL209-239): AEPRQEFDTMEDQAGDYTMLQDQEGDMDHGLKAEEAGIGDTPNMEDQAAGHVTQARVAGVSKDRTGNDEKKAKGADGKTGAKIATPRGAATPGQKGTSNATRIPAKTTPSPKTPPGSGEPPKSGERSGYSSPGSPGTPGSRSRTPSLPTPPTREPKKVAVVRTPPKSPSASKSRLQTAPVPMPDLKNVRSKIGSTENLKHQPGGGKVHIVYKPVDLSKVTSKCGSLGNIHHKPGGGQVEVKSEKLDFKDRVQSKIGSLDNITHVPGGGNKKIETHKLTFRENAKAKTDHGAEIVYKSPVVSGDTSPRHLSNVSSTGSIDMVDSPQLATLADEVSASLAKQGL
Experimental: All free fatty acids were purchased in the cis conformation and at maximum available purity from Sigma Chemical Company free fatty acids were diluted into tau and amyloid samples from a 200× ethanolic stock, such that the final ethanol concentration in all samples and controls was 0.5%.
Assembly was performed at 37° C. in siliconized microfuge tubes.
For staining of amyloid filaments, 4% uranyl acetate was used and the H2O rinse was omitted. […] Because short filaments were sometimes difficult to distinguish from background debri in digitized images, high concentrations of DTT were routinely used in order to maximize the production of longer filaments.

adult rat MTτ = assay: Arachidonic acid dependence of tau assembly, adult rat MTτ; format: biochemical; details: assembly at 10 mM DTT compared with 0.01-1.0 mM DTT; adult tau, 50 μM arachidonic acid
Experimental: For most experiments, tau proteins were diluted to 2× the desired concentration in buffer A, then 1/2 in borate saline (0.1 M H3BO3, 25 mM Na2B4O7, 75 mM NaCl) supplemented with 20 mM dithiothreitol (DTT) and 2× the required concentration of free fatty acids (final pH ˜8.4). Assembly was performed at 37° C. in siliconized microfuge tubes. For evaluating the dependence of assembly on ionic strength, tau was diluted 1/10 into 111 mM Tris pH 7.2, 11 mM DTT, supplemented to give the indicated final concentrations of NaCl. At 250 mM NaCl, the measured CMC of arachidonic acid in the Tris buffering system was >2 mM. […] For staining of amyloid filaments, 4% uranyl acetate was used and the H2O rinse was omitted. […] For filament length measurements, random micrographs obtained at a nominal magnification of 15K were digitized and traced using either software from Universal Imaging Corporation or the public domain NIH Image program (for Macintosh; written by W. Rasband at the NIH and available from the Internet by anonymous ftp from zippy.nimh.nih.gov or on floppy disk from NTIS, 5285 Port Royal Rd., Springfield, Va. 22161, part number PB93-504868). […] Because short filaments were sometimes difficult to distinguish from background debri in digitized images, high concentrations of DTT were routinely used in order to maximize the production of longer filaments.

Aβ1-40 [1] = biological target: T2, Aβ1-40 (Homo sapiens, UniProt P05067); assay: Amyloid peptide assembly, electron microscopy; format: biochemical; details: 24 hour incubation with 40 mM oleic acid or 50 mM linoleic acid
T2 construct: Aβ1-40 (Amyloid β-protein, residues 1-40, Sigma); purchased Sigma
T2 sequence (P05067 672-711 limits assumed): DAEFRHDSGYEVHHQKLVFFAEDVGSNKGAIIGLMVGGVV
Experimental: (§1) Aβ1-40 (Amyloid β-protein, residues 1-40, Sigma) was resuspended in Aβ assembly buffer (100 mM Tris pH 7.4, 150 mM NaCl) at a concentration of 0.5 mg/ml, and frozen in aliquots at −80° C. Thawed aliquots were diluted to […] in assembly buffer, and following a 2 hour pre-incubation, were centrifuged for 10 min at 14,000 rpm in an Eppendorf 5415C desktop centrifuge. The clarified solution was then supplemented with free fatty acids (final Aβ concentration ˜[…]), and incubated for 24 hours. Care was taken to perform all procedures at 4° C.
For staining of amyloid filaments, 4% uranyl acetate was used and the H2O rinse was omitted. […] For filament length measurements, random micrographs obtained at a nominal magnification of 15K were digitized and traced using either software from Universal Imaging Corporation or the public domain NIH Image program (for Macintosh; written by W. Rasband at the NIH and available from the Internet by anonymous ftp from zippy.nimh.nih.gov or on floppy disk from NTIS, 5285 Port Royal Rd., Springfield, Va. 22161, part number PB93-504868). […] Because short filaments were sometimes difficult to distinguish from background debri in digitized images, high concentrations of DTT were routinely used in order to maximize the production of longer filaments.

Aβ1-40 [2] = biological target: T2, Aβ1-40; assay: Amyloid peptide assembly, thioflavin T fluorescence spectroscopy; format: biochemical; details: for fatty acid concentration giving significant increases in polymer content: thioflavin T fluorescence, 24 hours
Experimental: as §1
Fluorescence spectroscopy was performed essentially as described (Castano et al., 1995). Aliquots were diluted 1/6 into 67 mM glycine pH 9, […] thioflavin T, vortexed, and placed in a quartz cuvette. Samples were read on a Perkin Elmer LS-50B luminescence spectrometer, excitation=435 nm, emission=485 nm, slit widths=5 nm. The integrated intensity was averaged from the initial ten, 10 sec sampling intervals. The signal was stable for at least several hours. The fluorescence of five samples lacking Aβ was averaged and subtracted as background from all readings.

[3] = Critical micellar concentration by phase partitioning of phenylnaphthylamine; format: physicochemical; details: free fatty acids diluted into assembly buffer
Experimental: All free fatty acids were purchased in the cis conformation and at maximum available purity from Sigma Chemical Company free fatty acids were diluted into tau and amyloid samples from a 200× ethanolic stock, such that the final ethanol concentration in all samples and controls was 0.5%. Values for the critical micellar concentration (CMC) were obtained based on the phase partitioning of […] phenylnaphthylamine (Kovatchev et al., 1981) when free fatty acids were diluted into assembly buffer.
For most experiments, tau proteins were diluted to 2× the desired concentration in buffer A, then 1/2 in borate saline (0.1 M H3BO3, 25 mM Na2B4O7, 75 mM NaCl) supplemented with 20 mM dithiothreitol (DTT) and 2× the required concentration of free fatty acids (final pH ˜8.4). Assembly was performed at 37° C. in siliconized microfuge tubes. For evaluating the dependence of assembly on ionic strength, tau was diluted 1/10 into 111 mM Tris pH 7.2, 11 mM DTT, supplemented to give the indicated final concentrations of NaCl. At 250 mM NaCl, the measured CMC of arachidonic acid in the Tris buffering system was >2 mM.

Structure (SMILES) | Polymer Mass (μm/field) (juvenile rat MTτ) | % maximum (juvenile rat MTτ) [%] | CMC [3] [mM] | also measured
CC/C=C\C/C=C\C/C=C\CCCCCCCC(=O)O [9,12,15-linolenic acid (18:3), 9,12,15-linolenic acid] | 4.01 ± 0.72 | 16 |  | 
CCCCC/C=C\C/C=C\C/C=C\C/C=C\CCCC(=O)OCC [ethyl ester of arachidonic acid] |  |  |  | stimulation of tau assembly, qualitative examination of grids (juvenile rat MTτ): did not appear to be stimulated
CCCCCCCCC=CCCCCCCCCCC(=O)O [11-eicosenoic acid (20:1), 11-eicosenoic acid] | 8.23 ± 1.36 | 34 |  | 
CCCCCC=CCC=CCC=CCCCCCCC(=O)O [8,11,14-eicosatrienoic acid (20:3), 8,11,14-eicosatrienoic acid] | 7.99 ± 1.55 | 33 |  | 
O[C@H](CS)[C@H](O)CS (racemic) [DTT, dithiothreitol] |  |  |  | decrease in total polymer mass (adult rat MTτ): > 50%
CCCCC/C=C\C/C=C\CCCCCCCC(=O)O [9,12-linoleic acid (18:2), 9,12-linoleic acid] | 14.74 ± 3.31 | 60 | 0.21 | amyloid filament lengths by electron microscopy (Aβ1-40 [1]): dramatic increase in filament lengths; relative potency as inducer of amyloid assembly (Aβ1-40 [2]; at higher concentrations of free fatty acids (above 40 μM)): more potent inducer of amyloid assembly; fatty acid concentration giving significant increases in polymer content (Aβ1-40 [2]): 40 µM
CCCCCCCC/C=C\CCCCCCCC(=O)O [9-oleic acid (18:1), 9-oleic acid] | 7.36 ± 1.77 | 30 | 0.59 | amyloid filament lengths by electron microscopy (Aβ1-40 [1]): dramatic increase in filament lengths; fatty acid concentration giving significant increases in polymer content (Aβ1-40 [2]): 40 µM
CCCCC/C=C\C/C=C\C/C=C\C/C=C\CCCC(=O)OC [methyl ester of arachidonic acid] |  |  |  | stimulation of tau assembly, qualitative examination of grids (juvenile rat MTτ): did not appear to be stimulated
CCCCCC/C=C\CCCCCCCC(=O)O [9-palmitoleic acid (16:1), 9-palmitoleic acid] | 23.69 ± 4.11 | 97 | 0.44 | 
CCC=CCC=CCC=CCC=CCC=CCCCC(=O)O [5,8,11,14,17-eicosapentaenoic acid] | 11.81 ± 1.51 | 48 |  | 
CCCCCCCCCCCCCCCCCC(=O)O [stearic acid (18:0), stearic acid] | 3.60 ± 0.54 | 15 | >1 | 
CCCCCCCCCCCCCCCC(=O)O [palmitic acid (16:0), palmitic acid] | 7.37 ± 0.92 | 30 |  | 
CCCCCC=CCC=CCCCCCCCCCC(=O)O [11,14-eicosadienoic acid (20:2), 11,14-eicosadienoic acid] | 1.20 ± 0.32 | 5 |  | 
CCCCCCCCCCCCCC(=O)O [myristic acid (14:0), myristic acid] | 5.50 ± 0.76 | 22 | >1 | 
